Test results published in patent US5294634A, “Osteogenesis promoter” (Zeria Pharmaceutical Co., Ltd., priority 1989, dated 1994).

Assays:
[1] = system: femoral diaphysis; test: Osteogenesis-stimulating action (overall, Test Example 1); assay type: in vivo, young Wistar rats; details: for change in zinc content, calcium content and alkaline phosphatase activity in the femoral diaphysis: oral, 5.5 mg/kg body weight in terms of zinc, 3 days, in words
Procedure: (§1) The osteogenesis-stimulating action of the zinc complex of L-carnosine was confirmed by the calcium content, zinc content, alkaline phosphatase activity and DNA content in the femoral diaphysis of young rats used. Zinc sulfate was used as a comparative compound.
(§2) Young Wistar rats were used regarding five rats as one group. […] A control group was orally given with a solvent alone.
(§3) The agent to be tested was administered for 3 days once a day in an amount corresponding to 5.5 mg/kg body weight in terms of zinc. Upon elapsed time of 24 hours after the last dose, the rats were sacrificed and the femoral regions were taken out of each rat under light ether anesthesia. Soft tissues and bone marrow were removed from the femoral region. The diaphysis and epiphysis (including metaphyseal tissues) were separated from each other to form fragments of the femoral diaphysis.

[2] = system: femoral diaphysis; test: Calcium content in femoral diaphysis of young rats (Test Example 1, osteogenesis-stimulating action); assay type: in vivo, young Wistar rats; details: oral, 5.5 mg/kg body weight in terms of zinc, once a day for 3 days; 24 h after last dose; average ± standard error; control 386.5 ± 6.5
Procedure: as §1, §2, §3
The femoral diaphysis tissue was ashed for 24 hours at 640° C. to weigh the resulting ash. Thereafter, the ash was dissolved in 6N hydrochloric acid to measure its calcium content by atomic absorption spectrophotometry. The calcium content in the bone was expressed in terms of mg per g of the bone ash.
(§4) The data were shown as average value±standard error. The significant difference was determined using the Student's t-test.

[3] = system: alkaline phosphatase; test: Alkaline phosphatase activity in femoral diaphysis of young rats (Test Example 1); assay type: in vivo, young Wistar rats; details: oral, 5.5 mg/kg body weight in terms of zinc, once a day for 3 days; 24 h after last dose; average ± standard error; control 1599.6 ± 74.5
Procedure: as §1, §2
The agent to be tested was administered for 3 days once a day in an amount corresponding to 5.5 mg/kg body weight in terms of zinc. Upon elapsed time of 24 hours after the last dose, the rats were sacrificed and the femoral regions were taken out of each rat under light ether anesthesia. […]
The femoral diaphysis tissue was immersed into 3 ml of ice-cold 6.5 mM barbital buffer solution (pH: 7.4) and then cut into pieces to uniformly grind them by a Potter-Blvehjem homogenizer equipped with a Teflon pestle. […] The alkaline phosphatase activity was determined in accordance with the Wallter-Schutt procedure [Bergmeyer HU (ed), Methods of enzymatic analysis, Vol. 1-2, Academic Press, New York, pp. 856-860 (1965)]. […] The concentration of protein was measured in accordance with the method by Lowry et al. [J. Biol. Chem., 193, 265-273 (1951)].
as §4

[4] = system: femoral diaphysis; test: DNA content in femoral diaphysis of young rats (Test Example 1); assay type: in vivo, young Wistar rats; details: oral, 5.5 mg/kg body weight in terms of zinc; for change in DNA content in the femoral diaphysis: 3 days, in words; for DNA: once a day for 3 days, 24 h after last dose, average ± standard error, control 1.450 ± 0.020
Procedure: as §1, §2, §3
A small fragment of the fempral diaphysis was subjected to homogenization for bone tissue, followed by its shaking together with 4.0 ml of 0.1N sodium hydroxide solution cooled with ice. After the thus-treated homogenate was subjected to alkali extraction, the extract was centrifuged at 10,000×g for 5 minutes. The thus-obtained supernatant liquid was used for the measurement in accordance with the Ceriotti method [J. Biol. Chem., 214, 39-77 (1955)]. The DNA content was expressed in terms of the total DNA content (mg) per gram of a wet bone.
as §4

[5] = system: femoral diaphysis; test: Zinc content in femoral diaphysis of young rats (Test Example 1); assay type: in vivo, young Wistar rats; details: oral, 5.5 mg/kg body weight in terms of zinc, once a day for 3 days; 24 h after last dose; average ± standard error; control 156.9 ± 7.7
Procedure: as §1, §2, §3
A fragment of the femoral diaphysis was digested with nitric acid [Biochem. Pharmacol., 36, 4007-4012 (1986)] to measure the content of zinc by atomic adsorption spectrophotometry. The zinc content was expressed in terms of micrograms of zinc per gram of a wet bone.
as §4

[6] = system: rats; test: Oral acute toxicity (Test Example 2); assay type: in vivo, Wister male and female rats; details: 10 g/kg body weight, observation for 7 days, male and female rats
Excerpt: Using Wister male and female rats of 150-200 g by weight regarding 10 rats as respective groups, the crystalline zinc complex of L-carnosine in a dose of 10 g/kg body weight) was orally administered to each rat.

[7] = in vivo; cited from earlier work

Row | SMILES | change in zinc content, calcium content and alkaline phosphatase activity in the femoral diaphysis [1] | osteogenesis-stimulating action compared with zinc sulfate ([1]; same amounts (5.5 mg/kg body weight) in terms of zinc) | Calcium content [2] | Alkaline phosphatase [3] | change in DNA content in the femoral diaphysis [4] | DNA [4] | Zinc [5] | dead cases [6] | side effects [7]
1 | NCCC(=O)[N-][C@@H](Cc1c[nH]cn1)C(=O)[O-].[Zn+2] [L-carnosine zinc complex, Crystalline Zinc Complex of L-Carnosine] | increased | stronger osteogenesis-stimulating action than zinc sulfate | 458.1 ± 8.7 mg/g bone ash | 1963.4 ± 118.3 μmol/min/mg protein | increased | 2.931 ± 0.100 mg/g wet bone | 235.0 ± 9.1 μg/g wet bone | dead cases were not recognized | –
2 | O=S(=O)([O-])[O-].[Zn+2] [Zinc sulfate, zinc sulfate, reference compound] | increased | – | 405.8 ± 4.5 mg/g bone ash | 2580.5 ± 80.3 μmol/min/mg protein | a significant change was not produced | 1.510 ± 0.050 mg/g wet bone | 206.7 ± 9.8 μg/g wet bone | – | vomiting, nausea and diarrhea
